Test results taken from paper PMC12195740, “Discovery of Novel Imidazothiazole-Based Hydroxamic Acid Derivatives as Potent Indoleamine 2,3-Dioxygenase 1 and Histone Deacetylase 6 Dual Inhibitors” (Molecules, 2025).

Legend:
[1] = set-up: method as in PMID 32815366; conditions: cell line not given; cited from earlier work
[2] = biological target: HDAC4 (Homo sapiens, UniProt P56524); assay: HDAC isoform selectivity assay, HDAC4; type: biochemical; conditions: read-out: HDAC4 % inhibition rate at 10 μM
[3] = test system: MDA-MB-231 cells; assay: Cell viability (MTT) assay, MDA-MB-231; conditions: Homo sapiens, MDA-MB-231, 48 h, read-out: Antiproliferative IC50, MDA-MB-231
Method: Section S 1.3 Cell viability assays
(§1) Cell Bank at the Chinese Academy of Sciences.
(§2) DMEM and FBS were obtained from Gibco-Thermo (BRL Co. Ltd., USA).
(§3) another 48 h. The cells were stained with 10 μl of MTT at incubator for approximately 4 h. The medium was discarded and replaced by 100 mL DMSO. The O.D. value was read at 570/630 nm with a spectrophotometer.

[4] = biological target: T1, rhIDO1 (Homo sapiens, UniProt P14902); assay: IDO1 inhibition assay; type: biochemical; conditions: means ± S.D. of three independent experiments
T1 construct: purchased
Method: Section S1. Biological assays […]
Section S 1.2 IDO1 inhibition assays
IDO1 inhibition assays were carried out according to the manufacturers’ procedures, as described previously. The standard assay mixture (100 μL) contained 50 mM of potassium phosphate buffer (pH = 6.5), 10 mM ascorbate, 10 μM methylene blue, 100 μg/mL catalase, 1 mM L-tryptophan and 10 μg/mL of rhIDO1. The plate was incubated at 37 °C in a dark environment, and reactions were terminated after 60 min by the addition of 50 μL of fluorogenic developer solution and further incubated at 45 °C in dark for 3 h. Then, the plate was allowed to cool to room temperature for at least 1 h. After centrifugation at 1500g for 5 min at 20 °C, the fluorescence […]
M1000 Pro, Tecan US, Morrisville, NC) in an end-point mode. […]

[5] = test system: MCF-7 cells; assay: Cell viability (MTT) assay, MCF-7; conditions: Homo sapiens, MCF7, 48 h, read-out: Antiproliferative IC50, MCF-7
Method: Section S 1.3 Cell viability assays
as §1, §2, §3

[6] = biological target: T2, HDAC6 human recombinant enzyme (Homo sapiens, UniProt Q9UBN7); assay: HDAC6 enzyme inhibitory activity assay; type: biochemical; conditions: for inhibition at 1 µM: read-out: HDAC6 Inhibition Rate at 1 μM
T2 sequence (Q9UBN7 1-1215): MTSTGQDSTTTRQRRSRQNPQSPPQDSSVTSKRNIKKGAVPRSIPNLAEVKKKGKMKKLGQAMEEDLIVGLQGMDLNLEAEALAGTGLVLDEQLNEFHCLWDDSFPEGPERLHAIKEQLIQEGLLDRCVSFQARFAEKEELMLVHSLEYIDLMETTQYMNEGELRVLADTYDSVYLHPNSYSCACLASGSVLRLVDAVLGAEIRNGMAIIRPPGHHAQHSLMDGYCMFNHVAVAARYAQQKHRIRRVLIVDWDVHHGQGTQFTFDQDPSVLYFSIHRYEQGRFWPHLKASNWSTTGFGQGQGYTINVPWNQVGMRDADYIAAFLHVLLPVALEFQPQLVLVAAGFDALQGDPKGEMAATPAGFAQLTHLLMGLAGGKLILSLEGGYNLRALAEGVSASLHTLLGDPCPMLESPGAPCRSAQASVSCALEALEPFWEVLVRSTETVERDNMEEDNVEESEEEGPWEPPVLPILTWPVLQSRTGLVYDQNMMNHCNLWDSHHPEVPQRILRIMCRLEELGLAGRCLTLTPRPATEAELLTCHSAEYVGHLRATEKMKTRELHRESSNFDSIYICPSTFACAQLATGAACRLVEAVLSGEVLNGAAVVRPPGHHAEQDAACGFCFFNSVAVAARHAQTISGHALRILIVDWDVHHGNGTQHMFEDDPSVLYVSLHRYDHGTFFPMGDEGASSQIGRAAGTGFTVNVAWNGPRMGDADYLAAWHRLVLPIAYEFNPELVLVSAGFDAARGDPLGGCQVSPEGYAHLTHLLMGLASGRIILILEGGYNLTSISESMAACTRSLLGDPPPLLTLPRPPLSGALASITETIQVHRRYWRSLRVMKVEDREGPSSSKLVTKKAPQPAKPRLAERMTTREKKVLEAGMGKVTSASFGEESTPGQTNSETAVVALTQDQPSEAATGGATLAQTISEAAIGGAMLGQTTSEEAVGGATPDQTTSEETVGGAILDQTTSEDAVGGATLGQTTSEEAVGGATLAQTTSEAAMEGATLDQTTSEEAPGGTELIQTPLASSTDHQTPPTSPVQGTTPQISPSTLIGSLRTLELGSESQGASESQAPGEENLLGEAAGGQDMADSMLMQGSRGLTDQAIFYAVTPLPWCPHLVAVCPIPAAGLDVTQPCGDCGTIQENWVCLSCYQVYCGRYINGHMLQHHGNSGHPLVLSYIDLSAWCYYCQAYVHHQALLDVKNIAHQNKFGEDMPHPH
Method: Section S1. Biological assays
Section S 1.1. HDAC6 enzyme inhibitory activity assay
Preparation of Master Mix. Trichostatin A in DMSO, Fluorogenic HDAC substrate 3, and HDAC6 human recombinant enzyme were diluted to 20 μM, 200 μM, and 7 ng/uL, respectively, using HDAC Assay Buffer.BSA was dissolved in 1 mL of distilled water to make a BSA solution at a concentration of 1 mg/mL. A certain amount of Fluorogenic HDAC substrate 3, BSA and HDAC Assay Buffer were mixed well to make a master mix, and 40 μL of the master mix was added to each well of a 96-well plate. In the drug administration group, 5 μL of Trichostatin A in DMSO and HDAC6 human recombinant enzyme were added to each well. 5 μL of HDAC Assay Buffer and HDAC6 human recombinant enzyme were added to each well of the blank group, and incubated for 30 min at 37 °C. Finally, 50 μL of undiluted HDAC substrate 3, BSA and HDAC Assay Buffer were added to each well. 50 μL of 2x HDAC Developer was added to each well and incubated at room temperature for 15 min. The samples were read in an enzyme marker with an excitation wavelength in the range of 350-380 nm and an emission light in the range of 440-460 nm.
The values of fluorescence intensities were read and the inhibition rate and IC50 were calculated. […]

[7] = test system: SW480 cells; assay: Cell viability (MTT) assay, SW480; conditions: Homo sapiens, SW480, 48 h, read-out: Antiproliferative IC50, SW480
Method: Section S 1.3 Cell viability assays
as §1, §2, §3

[8] = test system: HCT-116 cells; assay: Cell viability (MTT) assay, HCT-116; conditions: Homo sapiens, HCT-116, 48 h, read-out: Antiproliferative IC50, HCT-116
Method: Section S 1.3 Cell viability assays
as §1, §2, §3

[9] = biological target: T3, HDAC11 (Homo sapiens, UniProt Q96DB2); assay: HDAC isoform selectivity assay, HDAC11; type: biochemical
T3 sequence (Q96DB2 1-347): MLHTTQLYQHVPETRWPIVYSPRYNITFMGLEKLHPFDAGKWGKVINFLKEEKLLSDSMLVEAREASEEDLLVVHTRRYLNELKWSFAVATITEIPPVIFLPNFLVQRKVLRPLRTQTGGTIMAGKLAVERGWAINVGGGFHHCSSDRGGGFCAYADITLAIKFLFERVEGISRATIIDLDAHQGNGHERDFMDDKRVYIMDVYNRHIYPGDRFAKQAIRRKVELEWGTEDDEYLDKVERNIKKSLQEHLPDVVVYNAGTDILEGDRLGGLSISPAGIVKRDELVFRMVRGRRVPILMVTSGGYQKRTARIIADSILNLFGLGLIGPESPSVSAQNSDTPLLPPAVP

[10] = biological target: HDAC1 (Homo sapiens, UniProt Q13547); assay: HDAC isoform selectivity assay, HDAC1; type: biochemical
[11] = Cell viability assay, HK2 normal renal cells; conditions: human
Description: On the basis of the IDO1 and HDAC activities, we explored the proliferation inhibitory activities of the selected compounds against four solid tumor cells lines.

T1 sequence (P14902 whole entry): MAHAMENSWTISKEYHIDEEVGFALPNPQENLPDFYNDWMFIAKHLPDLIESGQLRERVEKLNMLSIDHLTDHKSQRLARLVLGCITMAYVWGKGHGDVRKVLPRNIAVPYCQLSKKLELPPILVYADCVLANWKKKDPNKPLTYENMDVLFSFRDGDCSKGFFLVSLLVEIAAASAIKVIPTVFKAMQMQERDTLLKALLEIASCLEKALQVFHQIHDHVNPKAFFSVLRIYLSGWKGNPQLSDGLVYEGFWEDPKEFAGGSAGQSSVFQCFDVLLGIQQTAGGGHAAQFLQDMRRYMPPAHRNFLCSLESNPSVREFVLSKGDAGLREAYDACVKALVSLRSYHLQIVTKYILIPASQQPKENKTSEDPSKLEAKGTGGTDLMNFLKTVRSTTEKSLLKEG
HDAC4, sequence (P56524 whole entry, species assumed, canonical isoform): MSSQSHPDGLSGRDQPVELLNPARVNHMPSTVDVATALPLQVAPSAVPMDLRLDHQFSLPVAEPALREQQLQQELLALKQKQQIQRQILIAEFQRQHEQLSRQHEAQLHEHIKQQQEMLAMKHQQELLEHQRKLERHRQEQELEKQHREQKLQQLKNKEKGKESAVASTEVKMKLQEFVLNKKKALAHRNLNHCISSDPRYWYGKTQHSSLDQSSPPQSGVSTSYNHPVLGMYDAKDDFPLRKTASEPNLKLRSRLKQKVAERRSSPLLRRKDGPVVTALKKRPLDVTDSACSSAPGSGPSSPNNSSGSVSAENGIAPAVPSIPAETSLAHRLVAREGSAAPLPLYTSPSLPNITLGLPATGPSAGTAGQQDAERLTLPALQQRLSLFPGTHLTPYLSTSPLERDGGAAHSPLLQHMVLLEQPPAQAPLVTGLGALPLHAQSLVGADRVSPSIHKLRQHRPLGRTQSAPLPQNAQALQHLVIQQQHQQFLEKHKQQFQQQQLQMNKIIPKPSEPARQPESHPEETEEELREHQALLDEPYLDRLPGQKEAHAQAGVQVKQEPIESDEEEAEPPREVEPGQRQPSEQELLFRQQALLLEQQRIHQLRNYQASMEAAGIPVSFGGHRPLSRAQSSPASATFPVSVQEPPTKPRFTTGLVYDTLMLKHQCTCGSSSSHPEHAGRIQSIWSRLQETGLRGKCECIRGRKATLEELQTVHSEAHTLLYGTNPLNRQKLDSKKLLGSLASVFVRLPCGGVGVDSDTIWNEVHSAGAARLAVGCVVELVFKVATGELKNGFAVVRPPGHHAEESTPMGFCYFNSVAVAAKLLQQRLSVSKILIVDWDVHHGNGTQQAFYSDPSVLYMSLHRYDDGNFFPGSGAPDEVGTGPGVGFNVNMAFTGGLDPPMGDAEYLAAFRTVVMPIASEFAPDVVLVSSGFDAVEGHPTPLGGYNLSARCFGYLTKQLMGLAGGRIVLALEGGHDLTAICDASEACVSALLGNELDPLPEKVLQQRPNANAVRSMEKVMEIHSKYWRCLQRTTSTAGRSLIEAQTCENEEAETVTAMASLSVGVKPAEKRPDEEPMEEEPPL
HDAC1, sequence (Q13547 whole entry, species assumed, canonical isoform): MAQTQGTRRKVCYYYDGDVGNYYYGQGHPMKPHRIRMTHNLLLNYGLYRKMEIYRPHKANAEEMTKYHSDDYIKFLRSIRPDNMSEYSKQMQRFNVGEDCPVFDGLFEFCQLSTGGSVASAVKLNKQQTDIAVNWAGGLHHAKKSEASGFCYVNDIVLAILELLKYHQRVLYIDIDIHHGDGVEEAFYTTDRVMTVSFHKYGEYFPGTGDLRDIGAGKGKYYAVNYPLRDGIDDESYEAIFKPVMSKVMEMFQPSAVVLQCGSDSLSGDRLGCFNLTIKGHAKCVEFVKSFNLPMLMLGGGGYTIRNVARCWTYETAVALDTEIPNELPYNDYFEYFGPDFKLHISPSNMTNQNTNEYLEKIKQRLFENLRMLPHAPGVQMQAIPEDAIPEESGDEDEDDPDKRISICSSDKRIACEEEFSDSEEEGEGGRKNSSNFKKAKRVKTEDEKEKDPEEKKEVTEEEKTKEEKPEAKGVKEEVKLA

| SMILES | concentration at which cytotoxicity begins [1] [µM] | inhibition at 10 µM [2] [%] | IC50 [3] [µM] | IC50 [4] [µM] | IC50 [5] [µM] | IC50 [6] [µM] | Selectivity Index (SI) = HDAC1 IC50 value/HDAC6 IC50 value [6] | inhibition at 1 µM [6] [%] | IC50 [7] [µM] | IC50 [8] [µM] | inhibition at 10 µM ([9]; read-out: HDAC11 % inhibition rate at 10 μM) [%] | IC50 [10] [µM] | IC50 [11] [µM] | IC50 [9] [µM] |
| --- | --- | --- | --- | --- | --- | --- | --- | --- | --- | --- | --- | --- | --- | --- |
| CCCCN(Cc1ccc(C(=O)NO)cc1)C(=O)Nc1ccccc1 [NextA] | 10 | – | – | – | – | – | – | – | – | – | – | – | – | – |
| NCc1ccc(NC(=O)N(CCCCO)Cc2ccc(C(=O)NO)cc2)cc1 [Suprastat] | > 25 | – | – | – | – | – | – | – | – | – | – | – | – | – |
| Cc1ccc(-c2csc3ncc(C(=O)Nc4ccc(NCCCCCCC(=O)NO)cc4)n23)cc1 [Compound 10k, N-{4-[(7-(hydroxyamino)-7-oxoheptyl)amino]phenyl}-3-(p-tolyl)imidazo[2,1-b]thiazole-5-carboxamide] | – | 9.68 | > 80 | 0.16 ± 0.03 | > 80 | 0.391 | 3.04 | 70.7 | > 80 | > 80 | 29.8 | 1.19 | – | – |
| O=C(O)c1cnc2scc(-c3ccc(Br)cc3)n12 [5a] | – | – | > 80 | 6.52 ± 0.45 | > 80 | – | – | – | > 80 | > 80 | – | – | > 80 | – |
| O=C(NO)c1ccc(CNC(=O)c2cnc3scc(-c4ccc(Br)cc4)n23)cc1 [Compound 7a, 3-(4-Bromophenyl)-N-[4-(hydroxycarbamoyl)benzyl]imidazo[2,1-b]thiazole-5-carboxamide] | – | 31.5 | > 80 | 0.53 ± 0.11 | > 80 | 0.0844 | 29.00 | 85.6 | > 80 | > 80 | – | 2.45 | – | 6.06 |
